In patent US20240417428A1, “POLYPEPTIDE FOR INHIBITING TRPM8 AND USE THEREOF” (ZHEJIANG UNIVERSITY, priority 2021, published 2024):
pIC50: −log10 of the molar value. Where a SMILES comes first, the peptide text is derived from it.

What was measured:
TRPV1 = target: T1, TRPV1 (Homo sapiens, UniProt Q8NER1); assay: Electrophysiological recording, ligand activation of TRPV1; format: cell-based
T1 construct: expressed in transfected cells; host or cells: HEK293T
Protocol: (§1) HEK293T cells were cultured in Dulbecco's modified Eagle culture medium under a 37° C., 5% CO2 environment, 10% fetal bovine serum, penicillin (100 U/mL), and streptomycin ([…]) was needed to add into the culture medium. Transient transfection was conducted by using Lipo 2000 (Invitrogen) transfection kit and following the instruction manual.
(§2) Electrophysiological experiment recordings were performed on the cells within 24˜48 h of transient transfections. Specifically, single channel electrophysiological recordings were performed within 8 h after transfection.
(§3) Measurement of the cell currents was respectively performed in the whole-cell recording mode, inside-out recording mode or outside-out recording mode with a HEKA EPC10 amplifier. In the whole cell electrophysiological recordings, glass microelectrodes made of borosilicate material were fire-polished to a original electrode resistance of about 3-6 MΩ. Serial resistance was compensated by 60%. The whole cell electrophysiological recordings were performed at ±80 mV. For single channel electrophysiological recordings, glass microelectrodes were fire-polished to a higher resistance of 6-8 MΩ2. Current signal was sampled at 10 kHz and filtered at 2.9 kHz. Membrane potential of the cell membrane would be clamped at +80 mV. All electrophysiological recordings were performed at room temperature (22° C.) (the maximum variation is 1° C.). […]

TRPV2 = target: T2, TRPV2 (Homo sapiens, UniProt Q9Y5S1); assay: Electrophysiological recording, ligand activation of TRPV2; format: cell-based; settings: IC 50 TRPV2
T2 construct: expressed in transfected cells; host or cells: HEK293T
T2 sequence (Q9Y5S1 1-764): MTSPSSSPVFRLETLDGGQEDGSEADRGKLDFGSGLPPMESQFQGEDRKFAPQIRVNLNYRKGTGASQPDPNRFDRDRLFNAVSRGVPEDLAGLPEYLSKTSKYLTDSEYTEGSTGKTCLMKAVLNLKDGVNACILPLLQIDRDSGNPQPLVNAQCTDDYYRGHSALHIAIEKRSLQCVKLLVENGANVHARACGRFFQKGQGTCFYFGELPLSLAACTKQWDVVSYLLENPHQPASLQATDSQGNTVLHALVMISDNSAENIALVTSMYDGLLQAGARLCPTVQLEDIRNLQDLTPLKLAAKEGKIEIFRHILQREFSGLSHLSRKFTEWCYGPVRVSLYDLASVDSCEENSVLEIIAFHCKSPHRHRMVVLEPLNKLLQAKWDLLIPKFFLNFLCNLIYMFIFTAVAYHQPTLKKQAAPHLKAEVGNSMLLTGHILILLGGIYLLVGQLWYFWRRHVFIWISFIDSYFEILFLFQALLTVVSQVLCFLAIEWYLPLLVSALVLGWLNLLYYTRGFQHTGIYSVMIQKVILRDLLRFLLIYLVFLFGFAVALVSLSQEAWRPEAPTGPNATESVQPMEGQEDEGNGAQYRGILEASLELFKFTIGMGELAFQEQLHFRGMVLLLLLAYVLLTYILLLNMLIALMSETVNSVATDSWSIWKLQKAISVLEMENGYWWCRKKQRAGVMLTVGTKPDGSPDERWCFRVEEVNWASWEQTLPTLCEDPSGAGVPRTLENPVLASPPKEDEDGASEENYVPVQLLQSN
Protocol: as §1, §2, §3

TRPA1 = target: T3, TRPA1 (Homo sapiens, UniProt O75762); assay: Electrophysiological recording of TRPA1; format: cell-based
T3 construct: expressed in transfected cells; host or cells: HEK293T
Protocol: as §1, §2, §3

[1] = test system: oxaliplatin-induced cold allodynia; assay: Oxaliplatin-induced cold allodynia, acetone evaporating cold test; format: in vivo, mice; settings: 3.5 μg/20 μL intraplantar, day 10 after oxaliplatin
Protocol: Adult male CD1 mice (6-8 weeks old) were used as experimental animals for behavioral experiments and primary cultures of DRG neurons. Mice were raised in the condition of 12 h light/12 h dark of light cycle with adequate standard chow and water. All animal protocols were approved by the Institutional Animal Care and Use Committee (IACUC) of Zhejiang University.
All of mice were habituated to the behavioral testing environment for 1-to-2 hours in 2-to-3 days before the behavioral testing. Single intraperitoneal (i.p.) injection of oxaliplatin (6 mg/kg body weight) was given to generate chemotherapy-induced neuropathic pain. Neuropathic pain behaviors were tested about 10 days after oxaliplatin injection.
Acetone-induced evaporating cold test was used to assess the oxaliplatin-induced cold allodynia. 50 μL acetone was gently splashed to the hind-paw plantar of oxaliplatin-treated mice via a syringe attached with plastic tube. The time spent in withdrawing, flinching or licking the stimulated paw was recorded and blindly counted during 5 min after acetone treatment. The cold allodynia behavior of mice was respectively measured on day 10 pre- or post-treatment with oxaliplatin, Vehicle or 3.5 μg/20 μL DeC-1.2 was intraplantarly injected to assess its analgesic effect on oxaliplatin-induced allodynia.

TRPM8 = TRPM8 (Mus musculus, UniProt Q8R4D5); assay: Inside-out single-channel recording of menthol-activated TRPM8 at +80 mV; format: cell-based; parameters: expressed in transfected cells; host or cells: HEK293T
Protocol: as §1, §2
Measurement of the cell currents was respectively performed in the whole-cell recording mode, inside-out recording mode or outside-out recording mode with a HEKA EPC10 amplifier. In the whole cell electrophysiological recordings, glass microelectrodes made of borosilicate material were fire-polished to a original electrode resistance of about 3-6 MΩ. Serial resistance was compensated by 60%. The whole cell electrophysiological recordings were performed at ±80 mV. For single channel electrophysiological recordings, glass microelectrodes were fire-polished to a higher resistance of 6-8 MΩ2. Current signal was sampled at 10 kHz and filtered at 2.9 kHz. Membrane potential of the cell membrane would be clamped at +80 mV. All electrophysiological recordings were performed at room temperature (22° C.) (the maximum variation is 1° C.).
There were different bath and pipette solutions prepared for different ion channels current measurement. For ion channels such as TRPM8, TRPV1, TRPV2, TRPV3 and TRPA1, the formula of the bath and pipette solutions was: 130 mM NaCl, 0.2 mM EDTA and 3 mM HEPES, pH=7.2. For the current measurement of TRPM4 ion channel, the formula of the bath solution was: 130 mM NaCl and 3 mM HEPES, pH=7.2, and the formula of the pipette solution was: 500 μM CaCl2), 130 mM NaCl and 3 mM HEPES, pH=7.2. For the current measurement of TRPM2 ion channel, the formula of the bath solution was: 147 mM NaCl, 2 mM KCl, 1 mM MgCl2, 10 mM HEPES, 2 mM CaCl2) 13 mM Glucose, pH=7.4, and the formula of the pipette solution was: 147 mM NaCl, 1 mM MgCl2, 10 mM HEPES, pH=7.4. For the current measurement of Nav1.5, Nav1.7 ion channels, the formula of the bath solution was: 140 mM NaCl, 3 mM KCl, 1 mM MgCl2, 1 mM CaCl2), 10 mM HEPES, pH=7.2 and the formula of the pipette solution was: 140 mM CsF, 1 mM EGTA, 10 mM NaCl, 10 mM MgCl2, 3 mM KCl, pH=7.2. To evoke sodium channel current, the membrane potential was increased from −80 mV to +10 mV.
A rapid solution changer with a gravity-driven perfusion system (RSC-200, BioLogic) was used to rapidly perfuse specific solutions into the cells to be tested. Each solution was delivered through a separate tube so that there is no mixing of solutions. The glass microelectrode with a membrane patch was placed directly below the outlet of the perfusion tube during the electrophysiology recordings.

Sequence of TRPM8 (Q8R4D5 whole entry): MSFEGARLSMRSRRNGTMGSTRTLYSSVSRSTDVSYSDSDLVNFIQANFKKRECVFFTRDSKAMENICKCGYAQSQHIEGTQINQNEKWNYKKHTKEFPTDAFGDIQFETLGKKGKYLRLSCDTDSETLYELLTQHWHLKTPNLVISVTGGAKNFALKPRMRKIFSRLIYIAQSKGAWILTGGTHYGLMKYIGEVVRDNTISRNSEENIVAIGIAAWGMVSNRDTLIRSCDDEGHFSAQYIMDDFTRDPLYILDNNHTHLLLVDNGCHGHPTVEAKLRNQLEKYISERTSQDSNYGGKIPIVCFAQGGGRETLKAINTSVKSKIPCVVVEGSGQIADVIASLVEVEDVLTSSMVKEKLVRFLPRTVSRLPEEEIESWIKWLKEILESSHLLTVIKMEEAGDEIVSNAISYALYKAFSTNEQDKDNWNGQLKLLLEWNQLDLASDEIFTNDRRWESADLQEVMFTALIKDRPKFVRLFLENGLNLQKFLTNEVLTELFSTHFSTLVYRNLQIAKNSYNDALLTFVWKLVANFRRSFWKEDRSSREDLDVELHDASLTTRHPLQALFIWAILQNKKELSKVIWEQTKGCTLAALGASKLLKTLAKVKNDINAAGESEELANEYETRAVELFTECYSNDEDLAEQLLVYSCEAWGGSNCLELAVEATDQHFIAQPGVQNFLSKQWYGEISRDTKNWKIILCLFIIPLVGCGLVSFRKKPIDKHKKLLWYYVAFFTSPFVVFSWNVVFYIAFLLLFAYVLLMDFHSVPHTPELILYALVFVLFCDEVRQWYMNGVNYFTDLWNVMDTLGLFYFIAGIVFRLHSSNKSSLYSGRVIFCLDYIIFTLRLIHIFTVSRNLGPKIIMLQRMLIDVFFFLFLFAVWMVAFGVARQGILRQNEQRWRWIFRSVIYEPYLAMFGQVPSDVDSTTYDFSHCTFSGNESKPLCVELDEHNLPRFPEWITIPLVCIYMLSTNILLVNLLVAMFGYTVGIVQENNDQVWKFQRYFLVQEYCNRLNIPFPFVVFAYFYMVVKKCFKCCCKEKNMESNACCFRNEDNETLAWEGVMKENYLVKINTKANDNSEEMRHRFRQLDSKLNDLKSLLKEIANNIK
T3 sequence (O75762 whole entry, species assumed): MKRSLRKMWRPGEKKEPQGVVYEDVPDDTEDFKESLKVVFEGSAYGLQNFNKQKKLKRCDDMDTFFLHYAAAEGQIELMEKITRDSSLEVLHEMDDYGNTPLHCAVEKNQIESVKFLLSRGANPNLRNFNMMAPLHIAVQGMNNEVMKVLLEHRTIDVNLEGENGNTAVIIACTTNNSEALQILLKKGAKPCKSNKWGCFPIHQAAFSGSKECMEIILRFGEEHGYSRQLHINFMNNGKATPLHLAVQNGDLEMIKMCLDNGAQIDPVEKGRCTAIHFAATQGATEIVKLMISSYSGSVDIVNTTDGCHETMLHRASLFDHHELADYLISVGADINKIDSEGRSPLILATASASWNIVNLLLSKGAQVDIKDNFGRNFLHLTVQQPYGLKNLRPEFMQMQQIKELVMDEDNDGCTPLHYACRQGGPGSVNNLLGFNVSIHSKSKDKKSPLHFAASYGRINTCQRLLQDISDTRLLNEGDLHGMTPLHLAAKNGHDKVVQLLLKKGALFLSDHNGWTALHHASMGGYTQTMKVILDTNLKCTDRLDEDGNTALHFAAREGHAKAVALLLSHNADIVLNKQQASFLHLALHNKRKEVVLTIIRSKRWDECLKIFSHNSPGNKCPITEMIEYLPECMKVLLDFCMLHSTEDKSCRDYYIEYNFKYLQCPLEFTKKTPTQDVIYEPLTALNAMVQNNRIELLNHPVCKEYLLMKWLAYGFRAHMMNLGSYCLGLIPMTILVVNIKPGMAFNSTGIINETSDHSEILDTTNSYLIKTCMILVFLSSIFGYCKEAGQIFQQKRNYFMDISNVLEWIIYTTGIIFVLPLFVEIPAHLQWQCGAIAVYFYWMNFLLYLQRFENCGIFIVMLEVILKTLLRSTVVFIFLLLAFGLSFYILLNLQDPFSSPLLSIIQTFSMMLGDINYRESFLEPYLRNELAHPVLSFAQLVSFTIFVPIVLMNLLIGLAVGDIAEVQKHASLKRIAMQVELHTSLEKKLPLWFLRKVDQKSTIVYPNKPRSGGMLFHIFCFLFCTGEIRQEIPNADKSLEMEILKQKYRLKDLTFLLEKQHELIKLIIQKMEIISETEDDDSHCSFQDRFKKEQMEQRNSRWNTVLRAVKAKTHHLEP
T1 sequence (Q8NER1 whole entry, species assumed): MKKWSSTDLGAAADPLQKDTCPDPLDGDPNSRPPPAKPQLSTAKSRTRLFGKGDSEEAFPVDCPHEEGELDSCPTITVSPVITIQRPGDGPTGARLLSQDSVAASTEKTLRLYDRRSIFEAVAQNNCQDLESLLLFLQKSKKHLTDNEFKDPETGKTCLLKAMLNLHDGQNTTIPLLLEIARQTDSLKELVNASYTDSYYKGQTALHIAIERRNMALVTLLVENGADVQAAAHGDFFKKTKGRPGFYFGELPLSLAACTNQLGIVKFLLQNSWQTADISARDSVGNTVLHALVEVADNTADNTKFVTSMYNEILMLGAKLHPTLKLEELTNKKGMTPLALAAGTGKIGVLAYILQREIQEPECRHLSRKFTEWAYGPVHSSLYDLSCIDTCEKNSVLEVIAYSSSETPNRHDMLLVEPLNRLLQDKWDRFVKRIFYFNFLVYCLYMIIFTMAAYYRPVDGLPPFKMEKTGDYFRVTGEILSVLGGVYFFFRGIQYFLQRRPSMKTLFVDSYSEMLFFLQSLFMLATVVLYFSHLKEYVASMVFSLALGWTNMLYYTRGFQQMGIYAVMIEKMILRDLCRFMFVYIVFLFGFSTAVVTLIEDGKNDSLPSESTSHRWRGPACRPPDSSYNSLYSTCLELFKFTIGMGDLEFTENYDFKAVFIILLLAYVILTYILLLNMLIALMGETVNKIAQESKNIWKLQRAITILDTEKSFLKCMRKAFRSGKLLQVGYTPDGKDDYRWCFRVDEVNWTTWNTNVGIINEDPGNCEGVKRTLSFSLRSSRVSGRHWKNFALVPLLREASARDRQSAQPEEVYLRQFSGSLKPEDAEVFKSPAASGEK

C[C@@H]1NC(=O)[C@H](CCCNC(=N)N)NC(=O)[C@H](CC(=O)O)NC(=O)[C@H](CCCNC(=N)N)NC(=O)[C@H](CCCNC(=N)N)NC(=O)[C@@H](N)CSSC[C@@H](C(=O)O)NC(=O)[C@H](CCCNC(=N)N)NC(=O)[C@H](CCC(N)=O)NC(=O)[C@H](CCCNC(=N)N)NC(=O)[C@H](Cc2ccc(O)cc2)NC(=O)[C@H](Cc2c[nH]cn2)NC(=O)[C@H](CCCNC(=N)N)NC1=O [DeC-1.2, CRRDRARHYRQRC] (HELM PEPTIDE1{C.R.R.D.R.A.R.H.Y.R.Q.R.C}$PEPTIDE1,PEPTIDE1,1:R3-13:R3$$$V2.0; N-terminus and C-terminus assumed)
pIC50 (TRPV1): < 4.00 | inhibition of ligand activation of TRPV1 (TRPV1; DeC-1.2 5 μM): failed to inhibit | pIC50 (TRPV2): < 5.30 | pIC50 (TRPA1): < 4.00 | inhibition of TRPA1 (TRPA1): none of the TRP channels and Nav channels were inhibited | cold pain behavior induced by acetone evaporation (acetone score) [1]: significantly improved the cold pain behavior | open probability of TRPM8 (TRPM8; DeC-1.2 100 μM with saturated menthol (1 mM), n=5): 18.83±1.92% | change of single-channel conductance of menthol-activated TRPM8 (TRPM8; DeC-1.2 100 μM, menthol 1 mM): decreases significantly | change of open probability of menthol-activated TRPM8 (TRPM8; DeC-1.2 100 μM, menthol 1 mM, P<0.0001): decreases significantly
